≈ marks a conversion by molar mass, not a printed value.
Experiments:
[1] = test system: Vero cells; assay: Cytotoxicity of the compounds for Vero cells (CPE observation, TC50); assay type: cell-based; conditions: no virus
Method: (§1) 2. Sample treatment: the compounds of the present invention are dissolved in DMSO or diluent to prepare stock solution which is stored at −20° C. The stock solution is formulated to suitable incipient concentration with culture solution immediately before use, and then 3-fold diluted with the culture solution, 8 degrees of dilution each.
(§2) 4. Test Method: Vero cells are seeded into a 96-well culture plate, at 5% CO2, and cultured at 37° C. for 16 hours. The Vero cells are added with different dilutions of drugs, and the degree of cytopathic effect (CPE) in each group is observed. The half toxic concentration (TC50) of each sample for Vero cells is calculated. Vero cells are added with 100TCID50 enterovirus EV71 respectively, and the virus solution is discarded after adsorption at 37° C. for 1 hour, and then drugs with various degrees of dilution are added respectively. Virus control and cell control are set and incubated at 37° C. The degree of cytopathic effect (CPE) in each group is observed when the degree of cytopathic effect (CPE) of virus control group reaches 4+. The half inhibitory concentration (IC50) of each sample for enterovirus EV71 are calculated. Selectivity Index (SI) is calculated according to the following equation: SI=TC50/IC50.

[2] = test system: enterovirus EV71 (BrCr strain); assay: Activity screening for anti-enterovirus EV71: inhibition of cytopathic effect in Vero cells; assay type: cell-based; conditions: for IC50: 100TCID50, Vero cells, CPE read when virus control reaches 4+, read-out: IC50 (half inhibitory concentration for enterovirus EV71)
Method: Test item: Activity screening of the compounds for anti-enterovirus EV71
Test principle: Vero cells are used as viral host. The inhibition of the compound of the invention on the degree of cytopathic effect of Vero cells caused by enterovirus virus EV71 is determined.
1. Virus strain: enterovirus EV71 (BrCr, American Type Culture Collection, ATCC)
as §1
3. Positive control drug: Pirodavir (LGM Pharma), which is a broad-spectrum anti-viral inhibitor.
as §2

Row | melting point [°C] | IC50 [2] [µg/mL] | SMILES | TC50 (half toxic concentration for Vero cells) [1] [µg/mL] | SI (Selectivity Index = TC50/IC50) ([2]; Vero cells)
1 | 198.6 to 199.3 | > 22.2 | O=C(Nc1nc2ccccc2s1)c1ccc(N(Cc2ccccc2)C(=O)[C@H]2O[C@@H]2C(=O)O)cc1 [Compound 38, (2S,3S)-3-((4-(benzo[d]thiazol-2-ylcarbamoyl)phenyl)(benzyl)carbamoyl)oxirane-2-carboxylic acid] | 115.47 | –
2 | 224.5 to 226 | 4.28 (≈ 7.03 µM) | COc1ccc(NC(=O)[C@H]2O[C@@H]2C(=O)N(Cc2ccccc2)c2ccc(C(=O)Nc3nc4ccccc4s3)cc2)cc1OC [Compound 39, (2S,3S)—N^2-(4-(benzo[d]thiazol-2-ylcarbamoyl)phenyl)-N^2-benzyl-N^3-(3,4-dimethoxyphenyl)-2,3-epoxybutanediamide] | 32.05 | 7.49
3 | 217.6 to 218.3 | > 0.82 | O=C(Nc1nc2ccccc2s1)c1ccc(N(Cc2ccccc2)C(=O)[C@H]2O[C@@H]2C(=O)Nc2ccc(Cl)c(Cl)c2)cc1 [Compound 40, (2S,3S)—N^2-(4-(benzo[d]thiazol-2-ylcarbamoyl)phenyl)-N^2-benzyl-N^3-(3,4-dichlorophenyl)-2,3-epoxybutanediamide] | 1.43 | –
4 | 223.5 to 224.3 | > 0.82 | COC(=O)c1csc(NC(=O)[C@H]2O[C@@H]2C(=O)N(Cc2ccccc2)c2ccc(C(=O)Nc3nc4ccccc4s3)cc2)n1 [Compound 41, (2S,3S)—N^2-(4-(benzo[d]thiazol-2-ylcarbamoyl)phenyl)-N^2-benzyl-N^3-(4-methoxycarbonylthiazol-2-yl)-2,3-epoxybutanediamide] | 1.43 | –
